The Ki is the equilibrium dissociation constant of an inhibitor or competing ligand from its target.

The text below walks through data of patent US8318467B2, “Inhibitors of GSK-3 and crystal structures of GSK-3β protein and protein complexes” (Vertex Pharmaceuticals Incorporated, priority 2001, dated 2012).

The target of this assay is T1, GSK-3β (amino acids 1-420) (Homo sapiens, UniProt P49841).
T1 construct: hexa-histidine tag with thrombin cleavage site (N); made in house
T1 sequence (P49841 whole entry, the tested form may be a part): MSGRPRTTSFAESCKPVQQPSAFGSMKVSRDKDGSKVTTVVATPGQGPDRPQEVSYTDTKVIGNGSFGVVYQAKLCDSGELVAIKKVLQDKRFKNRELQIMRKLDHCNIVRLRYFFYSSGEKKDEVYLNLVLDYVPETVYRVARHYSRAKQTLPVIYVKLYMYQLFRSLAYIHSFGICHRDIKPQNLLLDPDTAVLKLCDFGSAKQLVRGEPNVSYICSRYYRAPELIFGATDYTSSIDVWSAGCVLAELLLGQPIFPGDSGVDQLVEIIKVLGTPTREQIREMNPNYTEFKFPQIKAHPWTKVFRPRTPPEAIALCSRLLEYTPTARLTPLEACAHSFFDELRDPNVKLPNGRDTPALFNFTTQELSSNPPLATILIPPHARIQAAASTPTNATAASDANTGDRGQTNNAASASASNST
Nature of the assay: Ki determination for the inhibition of GSK-3 (standard coupled enzyme system). The conditions noted are these: 20 μM ATP, 300 μM peptide, 20 nM GSK-3β, 30° C.; read-out: Ki (GSK-3 inhibitory activity). The format is biochemical. The procedure: Reactions were carried out in a solution containing 100 mM HEPES (pH 7.5), 10 mM MgCl2, 25 mM NaCl, 300 μM NADH, 1 mM DTT and 1.5% DMSO. […] Reactions were carried out at 30° C. and 20 nM GSK-3β. Final concentrations of the components of the coupled enzyme system were 2.5 mM phosphoenolpyruvate, 300 μM NADH, 30 μg/ml pyruvate kinase and 10 μg/ml lactate dehydrogenase.
An assay stock buffer solution was prepared containing all of the reagents listed above with the exception of ATP and the test compound of interest. The assay stock buffer solution (175 μl) was incubated in a 96 well plate with 5 μl of the test compound of interest at final concentrations spanning 0.002 μM to 30 μM at 30° C. for 10 min. […] The reaction was initiated by the addition of 20 μl of ATP (final concentration 20 μM). Reaction rates were obtained using a Molecular Devices Spectramax plate reader (Sunnyvale, Calif.) over 10 min at 30° C. The Ki values were determined from the rate data as a function of inhibitor concentration.
Take `Nc1n[nH]c2nnc(-c3ccccc3)c(-c3ccc(Cl)cc3)c12` [Compound 2, 3-Amino-4(4-chlorophenyl)-5-phenyl-1H-pyrazolo[3,4-c]pyridazine]: the Ki was above 10000 nM. As for `Nc1n[nH]c2nnc(-c3ccc(F)cc3)c(-c3ccc(F)cc3)c12` [Compound 3, 3-Amino-4,5-bis(4-fluorophenyl)-1H-pyrazolo[3,4-c]pyridazine], the inhibitory constant (Ki) fell in the range of 100 to 10000 nM. The value for `Nc1n[nH]c2nnc(-c3ccc(F)cc3)c(-c3ccccc3)c12` [Compound 4, 3-Amino-4-phenyl-5-(4-fluorophenyl)-1H-pyrazolo[3,4-c]pyridazine] was above 10000 nM; that for `Nc1n[nH]c2nnc(-c3ccccc3)c(-c3ccc(F)cc3)c12` [Compound 5, 3-Amino-4-(1-fluorophenyl)-5-phenyl-1H-pyrazolo[3,4-c]pyridazine] was below 100 nM.

Take `Nc1n[nH]c2nnc(-c3ccccc3)c(-c3cccc(F)c3)c12` [Compound 6, 3-Amino-4(3-fluorophenyl)-5-phenyl-1H-pyrazolo[3,4-c]pyridazine]: the Ki was below 100 nM.

As to `Nc1n[nH]c2nnc(-c3ccncc3)c(-c3ccccc3)c12` [Compound 7, 3-Amino-4-phenyl-5-(4-pyridyl)-1H-pyrazolo[3,4-c]pyridazine], the Ki is above 10000 nM. With `Nc1n[nH]c2nnc(-c3cccc(F)c3)c(-c3ccccc3)c12` [Compound 8, 3-Amino-4-phenyl-5-(3-fluorophenyl)-1H-pyrazolo[3,4-c]pyridazine] the figure was below 100 nM; with `CC(=O)Nc1n[nH]c2nnc(-c3ccccc3)c(-c3ccccc3)c12` [Compound 9, N-(4,5-Diphenyl-1H-pyrazolo[3,4-c]pyridazin-3-yl)-acetamide], 100 to 10000 nM; with `O=C(Nc1n[nH]c2nnc(-c3ccccc3)c(-c3ccccc3)c12)c1ccccc1` [Compound 10, N-(4,5-Diphenyl-1H-pyrazolo[3,4-c]pyridazin-3-yl)-benzamide], 100 to 10000 nM.

On to `Cc1ccc(-c2nnc3[nH]nc(N)c3c2-c2ccccc2)cc1` [Compound 11, 3-Amino-4-phenyl-5-(4-methyl-phenyl)-1H-pyrazolo[3,4-c]pyridazine], for which the inhibitory constant (Ki) is below 100 nM.

As for `Cc1ccccc1-c1nnc2[nH]nc(N)c2c1-c1ccccc1` [Compound 12, 3-Amino-4-phenyl-5-(2-methyl-phenyl)-1H-pyrazolo[3,4-c]pyridazine], the Ki lay in the range of 100 to 10000 nM. The value for `Cc1cccc(-c2nnc3[nH]nc(N)c3c2-c2ccccc2)c1` [Compound 13, 3-Amino-4-phenyl-5-(3-methyl-phenyl)-1H-pyrazolo[3,4-c]pyridazine] was 100 to 10000 nM; that for `Nc1n[nH]c2nnc(-c3ccccc3Cl)c(-c3ccccc3)c12` [Compound 14, 3-Amino-4-phenyl-5-(2-chloro-phenyl)-1H-pyrazolo[3,4-c]pyridazine] was below 100 nM; that for `Nc1n[nH]c2nnc(-c3ccccc3F)c(-c3ccccc3)c12` [Compound 15, 3-Amino-4-phenyl-5-(2-fluorophenyl)-1H-pyrazolo[3,4-c]pyridazine] was below 100 nM.

Take `Nc1n[nH]c2nnc(-c3ccc(Cl)cc3)c(-c3ccccc3)c12` [Compound 16, 3-Amino-4-phenyl-5-(4-chloro-phenyl)-1H-pyrazolo[3,4-c]pyridazine]: the Ki fell in the range of 100 to 10000 nM. The value for `Nc1n[nH]c2nncc(-c3ccccc3)c12` [Compound 32, 4-Phenyl-1H-pyrazolo[3,4-c]pyridazin-3-ylamine] was 100 to 10000 nM.
